Like-named read-outs stand apart in the source and are kept apart here.

The values that follow come from patent US9630962B2, “4-amino-6-(2,6-dichlorophenyl)-2-(phenylamino)-pyrido[2,3-d]pyrimidin-7(8H)-one derivatives, synthesis and uses thereof” (INSTITUT QUÍMIC DE SARRIÁ, CETS FUNDACIÓ PRIVADA, priority 2013, dated 2017).

For one data set, the target named is T1, BTK (Homo sapiens, UniProt Q06187).
T1 construct: purchased ProQinase; host or cells: Sf9 insect cells or E. coli (not specified per kinase)
T1 sequence (Q06187 whole entry): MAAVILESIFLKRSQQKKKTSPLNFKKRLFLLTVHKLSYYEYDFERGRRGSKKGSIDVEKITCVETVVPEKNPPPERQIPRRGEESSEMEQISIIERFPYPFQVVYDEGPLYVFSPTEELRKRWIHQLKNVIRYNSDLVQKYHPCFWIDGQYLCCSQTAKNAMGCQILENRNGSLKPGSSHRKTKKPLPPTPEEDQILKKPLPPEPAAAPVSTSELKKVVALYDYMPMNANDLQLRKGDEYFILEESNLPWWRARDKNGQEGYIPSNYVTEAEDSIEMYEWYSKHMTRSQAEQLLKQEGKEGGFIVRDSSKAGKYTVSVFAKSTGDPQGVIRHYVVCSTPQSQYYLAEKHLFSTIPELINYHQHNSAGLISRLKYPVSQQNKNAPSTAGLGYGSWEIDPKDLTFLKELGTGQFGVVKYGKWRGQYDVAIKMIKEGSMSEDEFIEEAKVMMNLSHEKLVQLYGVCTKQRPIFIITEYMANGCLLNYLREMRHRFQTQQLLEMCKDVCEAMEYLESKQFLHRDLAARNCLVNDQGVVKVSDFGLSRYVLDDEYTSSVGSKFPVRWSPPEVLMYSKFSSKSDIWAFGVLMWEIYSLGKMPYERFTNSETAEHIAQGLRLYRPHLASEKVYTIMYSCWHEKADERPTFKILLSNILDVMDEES
The experiment in a line: Radiometric protein kinase assay (33PanQinase Activity Assay), residual activity. The format is biochemical. Particulars: 10 μM (1×10^−05 M) test compound, singlicate. As for the experimental part:
(§1) The kinase inhibition profile of compounds of formula (I) was evaluated at Proqinase (http://www.proqinase.conn) by measuring residual activity values at a concentration of 10 μM of the test compound in singlicate in front of the following kinases: BTK, LYN, SYK aa1-635 using the following protocol:
(§2) The compounds were dissolved to 1×10^−03 M stock solutions in 100% DMSO. Subsequently, 100 μl of each stock solution were transferred into wells A3-F12 of a microtiter plate (“master plate”). Wells A1-F2 were filled with 100 μl 100% DMSO as controls. 5×10 μl of the master plate were aliquoted into 5 copy plates, which were stored at −20° Celsius until use. For the testing of each group of up to 8 kinases, one copy plate was used.
(§3) In the process, 90 μl H2O were added to each well of a copy plate. To minimize precipitation, the H2O was added to each well only a few minutes before the transfer of the compound solutions into the assay plates. The plate was shaken thoroughly, resulting in a “compound dilution plate” with a compound concentration of 1×10^−04 M/10% DMSO. This plate was used for the transfer of 5 μl compound solution into the assay plates. The final volume of the assay was 50 μl. All compounds were tested at 1×10^−05 M in singlicate. The final DMSO concentration in the reaction cocktails was 1% in all cases. The compound dilution plates were disposed at the end of each working day.
(§4) A radiometric protein kinase assay (^33PanQinase® Activity Assay) was used for measuring the kinase activity of the corresponding protein kinases. All kinase assays were performed in 96-well FlashPlates™ from Perkin Elmer (Boston, Mass., USA) in a 50 μl reaction volume. The reaction cocktail was pipetted in 4 steps in the following order: • 10 μl of non-radioactive ATP solution (in H2O) • 25 μl of assay buffer/[γ-33P]-ATP mixture • 5 μl of test sample in 10% DMSO • 10 μl of enzyme/substrate mixture
(§5) The protein kinase reaction cocktails were incubated at 30° C. for 60 minutes. The reaction was stopped with 50 μl of 2% (v/v) H3PO4, plates were aspirated and washed two times with 200 μl 0.9% (w/v) NaCl. All assays were performed with a BeckmanCoulter Biomek 2000/SL robotic system. Incorporation of ^33Pi (counting of “cpm”) was determined with a microplate scintillation counter (Microbeta, Wallac).
(§6) All protein kinases provided by ProQinase were expressed in Sf9 insect cells or in E. coli as recombinant GST-fusion proteins or His-tagged proteins. All kinases were produced from human cDNAs and purified by either GSH-affinity chromatography or immobilized metal. Affinity tags were removed from a number of kinases during purification. The purity of the protein kinases was examined by SDS-PAGE/Coomassie staining, the identity was checked by mass spectroscopy.
(§7) For each kinase, the median value of the cpm of six wells of column 1 of each assay plate was defined as “low control” (n=6). This value reflects unspecific binding of radioactivity to the plate in the absence of a protein kinase but in the presence of the substrate. Additionally, for each kinase the median value of the cpm of six wells of column 2 of each assay plate was taken as the “high control”, i.e. full activity in the absence of any inhibitor (n=6). The difference between high and low control of each enzyme was taken as 100% activity.
(§8) As part of the data evaluation the low control of each kinase was subtracted from the high control value as well as from their corresponding “compound values”. The residual activity (in %) for each compound well was calculated by using the following formula: Res. Activity (%)=100×[(signal of compound −low control)/(high control −low control)] Results
(§9) The singlicate residual activity values of the tested compounds at one concentration (1×10^−05 M) in singlicate in the required protein kinase assays are given.

Another data set has as its target T2, LYN (Homo sapiens, UniProt P07948).
T2 construct: purchased ProQinase; host or cells: Sf9 insect cells or E. coli (not specified per kinase)
Described as above. Particulars: 10 μM (1×10^−05 M) test compound, singlicate. It is filed as biochemical. As for the experimental part: as §1, §2, §3, §4, §5, §6, §7, §8, §9

In a further data set the target is T3, SYK aa1-635 (Homo sapiens, UniProt P43405).
T3 construct: BTK, LYN, SYK aa1-635; purchased ProQinase; host or cells: Sf9 insect cells or E. coli (not specified per kinase)
Described as above. Particulars: 10 μM (1×10^−05 M) test compound, singlicate. It is filed as biochemical. As for the experimental part:
as §1, §2, §3, §4, §5, §6, §7, §8, §9

Data set [1] deals with relapsed/refractory non-Hodgkin's lymphoma and CLL. Particulars: cited from earlier work.

T2 sequence (P07948 whole entry): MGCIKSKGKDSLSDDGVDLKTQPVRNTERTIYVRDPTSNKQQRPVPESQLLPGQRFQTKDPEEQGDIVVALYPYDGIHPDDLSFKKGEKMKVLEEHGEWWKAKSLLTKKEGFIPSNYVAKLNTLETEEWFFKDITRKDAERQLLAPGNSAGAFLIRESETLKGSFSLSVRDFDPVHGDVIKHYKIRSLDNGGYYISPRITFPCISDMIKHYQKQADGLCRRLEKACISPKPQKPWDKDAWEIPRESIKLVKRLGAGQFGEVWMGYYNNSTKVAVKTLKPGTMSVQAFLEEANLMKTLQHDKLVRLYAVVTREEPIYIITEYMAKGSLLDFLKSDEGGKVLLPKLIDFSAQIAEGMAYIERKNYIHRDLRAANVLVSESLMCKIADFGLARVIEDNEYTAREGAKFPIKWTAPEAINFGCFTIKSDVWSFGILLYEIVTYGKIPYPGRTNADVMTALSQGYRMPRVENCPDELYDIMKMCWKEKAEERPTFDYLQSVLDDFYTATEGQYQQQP

As to `Cn1c(=O)c(-c2c(Cl)cccc2Cl)cc2c(N)nc(Nc3ccc(NCCN4CCOCC4)cc3)nc21` [Example 6, 4-amino-6-(2,6-dichlorophenyl)-8-methyl-2-(4-(2-morpholinoethylamino)-phenylamino)-pyrido[2,3-d]pyrimidin-7(8H)-one], the remaining activity – broadly, the activity still measured, relative to the control – at 10 µM on BTK was determined as 10%; on LYN, 0%; on SYK aa1-635, 31%.
Taken in the same sequence, the figures for `Cn1c(=O)c(-c2c(Cl)cccc2Cl)cc2c(N)nc(Nc3ccc(OCCN4CCOCC4)cc3)nc21` [Example 7, 4-amino-6-(2,6-dichlorophenyl)-8-methyl-2-(4-(2-morpholinoethoxy)-phenylamino)-pyrido[2,3-d]pyrimidin-7(8H)-one] were 16%, 0% and 44%.
Take `COc1cc(Nc2ncc(F)c(Nc3ccc4c(n3)N(COP(=O)(O)O)C(=O)C(C)(C)O4)n2)cc(OC)c1OC` [fostamatinib]: the response rate in data set [1] (DLBCL patients) is 22%; in data set [1] (FL patients) it was 10%; in data set [1] (MCL patients), 11%. The “partial response (PR)” value in data set [1] (patients with CLL (6 of 11)) is 55%. Moreover, in data set [1] (phase 1/2 study), the dose-limiting toxicity result is “diarrhea, neutropenia, and thrombocytopenia”.
